The source of these data is patent US20230031406A1, “COMPOUNDS AND COMPOSITIONS FOR TREATING CONDITIONS ASSOCIATED WITH NLRP ACTIVITY” (Novartis AG, priority 2018, published 2023).

Read-outs that look alike come from different tables or passages of the source.

The test system of the test is PMA-differentiated THP-1 cells. Kind of test: IL-1β production in PMA-differentiated THP-1 cells stimulated with gramicidin (hTHP-1 assay containing 2% fetal bovine serum; Procedures 1 and 2). The settings on record: 2% fetal bovine serum. In kind it is cell-based, human. The procedure, abridged: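 Compound titrations in 0.37% final DMSO were added to THP-1 cells that had been plated after 16-18 h PMA treatment, 50,000 per well in 2% FBS. One hour later the cells received gramicidin (5 μM, 2 h) and were centrifuged. HTRF detected IL-1β in the collected supernatants.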

The mark [1] stands for this setting: Homo sapiens, THP-1, Table B2, class symbols, read-out: hTHP-1 IC50.
The mark [2] stands for this setting: Table B1, class symbols, read-out: Average IC50 of compounds in hTHP-1 assay: hTHP-1 IC50.
Where [3] appears, read: Homo sapiens, THP-1, Table B2, numeric bounds, read-out: hTHP-1 IC50.
[4] abbreviates: Homo sapiens, THP-1, Table B1, class symbols, read-out: Average IC50 of compounds in hTHP-1 assay: hTHP-1 IC50.
Setting [5] is: Table B2, class symbols, read-out: hTHP-1 IC50.
The mark [6] stands for this setting: Homo sapiens, THP-1, Table B3, hTHP-1 assay, class symbols, read-out: IC50.

As for `CC(C)n1cc(CO)c(S(N)(=O)=NC(=O)Nc2c3c(nc4c2CCC4(C)C)CCC3)n1` (single isomer, unassigned) [Compound 682b, (R) or (S)-N′-((3,3-dimethyl-1,2,3,5,6,7-hexahydrodicyclopenta [b,e]pyridin-8-yl)carbamoyl)-4-(hydroxymethyl)-1-isopropyl-1H-pyrazole-3-sulfonimidamide], under setting [1], the half-maximal inhibitory concentration (IC50) was in the range of 1000 to 5000 nM.
On to `CC1CCc2c1nc1c(c2NC(=O)N=S(N)(=O)c2sc(C(C)(C)O)nc2CO)CCC1` (single isomer, unassigned) [Compound 168a, (S,R/S) or (R,R/S)-4-(hydroxymethyl)-2-(2-hydroxypropan-2-yl)-N′-((3-methyl-1,2,3,5,6,7-hexahydro-dicyclopenta[b,e]pyridin-8-yl)carbamoyl)thiazole-5-sulfonimidamide], for which the IC50 under setting [2] is 5000 to 30000 nM.
As for `CC(C)(O)c1scc(S(N)(=O)=NC(=O)Nc2c3c(nc4c2CCC4)CCC3)c1F` (single isomer, unassigned) [Compound 701b, (S) or (R)-4-Fluoro-N′-((1,2,3,5,6,7-hexahydrodicyclopenta [b,e]pyridin-8-yl)carbamoyl)-5-(2-hydroxypropan-2-yl)thiophene-3-sulfonimidamide], the IC50 under setting [3] is more than 30000 nM.
Regarding `CC(C)(O)c1cc(S(N)(=O)=NC(=O)Nc2c3c(nc4c2CCC4)CCC3)nn1-c1ccccc1` (stereo not drawn) [Compound 159, N-((1,2,3,5,6,7-hexahydrodicyclopenta[b,e]pyridin-8-yl)carbamoyl)-5-(2-hydroxypropan-2-yl)-1-phenyl-1H-pyrazole-3-sulfonimidamide], the half-maximal inhibitory concentration (IC50) under setting [4] is 1000 to 5000 nM.
Regarding `Cc1c(C2(C)CC2)nc2c(c1NC(=O)N=S(N)(=O)c1cc(C(C)(C)O)cs1)CCC2` (stereo not drawn) [Compound 669, 4-(2-Hydroxypropan-2-yl)-N′-((3-methyl-2-(1-methylcyclopropyl)-6,7-dihydro-5H-cyclopenta[b]pyridin-4-yl)carbamoyl)thiophene-2-sulfonimidamide], the IC50 under setting [1] was in the range of 5000 to 30000 nM.
Consider `CC(C)n1nc(S(N)(=O)=NC(=O)Nc2c3c(nc4c2CCC4(C)C)CCC3)cc1C(C)(C)O` (single isomer, unassigned) [Compound 615a, (S) or (R)-N′-((3,3-dimethyl-1,2,3,5,6,7-hexahydrodicyclopenta [b,e]pyridin-8-yl)carbamoyl)-5-(2-hydroxypropan-2-yl)-1-isopropyl-1H-pyrazole-3-sulfonimidamide], for which the concentration for half-maximal inhibition (IC50) under setting [3] was more than 30000 nM.
Take `Cc1c(C2CC2)nc2c(c1NC(=O)N=S(N)(=O)c1cc(C(C)(C)O)cs1)CCC2C` (single isomer, unassigned) [Compound 656c, (S, R) or (S, S) or (R, S) or (R, R)-N′-((2-Cyclopropyl-3,7-dimethyl-6,7-dihydro-5H-cyclopenta[b]pyridin-4-yl)carbamoyl)-4-(2-hydroxypropan-2-yl)thiophene-2-sulfonimidamide]: under setting [5], the IC50 lay in the range of 5000 to 30000 nM.
Take `CC(C)(O)c1ccnc(S(N)(=O)=NC(=O)Nc2c3c(nc4c2CCC4(C)C)CCC3)c1` (single isomer, unassigned) [Compound 620b, (R) or (S)-N′-((3,3-dimethyl-1,2,3,5,6,7-hexahydrodicyclopenta [b,e]pyridin-8-yl)carbamoyl)-4-(2-hydroxypropan-2-yl)pyridine-2-sulfonimidamide]: the IC50 under setting [1] fell in the range of 1000 to 5000 nM.
On to `CCn1cc(F)c(S(N)(=O)=NC(=O)Nc2c3c(nc4c2CC[C@@H]4C)CCC3)n1` (stereo partly drawn) [Example 616, 1-Ethyl-4-fluoro-N′-(((S)-3-methyl-1,2,3,5,6,7-hexahydrodicyclopenta[b,e]pyridin-8-yl)carbamoyl)-1H-pyrazole-3-sulfonimidamide], for which, under setting [6], the IC50 was in the range of 200 to 1000 nM.
Regarding `CC(C)(O)c1cc(Cl)c(S(N)(=O)=NC(=O)Nc2c3c(nc4c2CCC4)CCC3)s1` (single isomer, unassigned) [Compound 691b, (R) or (S)-3-Chloro-N′-((1,2,3,5,6,7-hexahydrodicyclopenta [b,e]pyridin-8-yl)carbamoyl)-5-(2-hydroxypropan-2-yl)thiophene-2-sulfonimidamide], the half-inhibitory concentration (IC50) under setting [5] lay in the range of 1000 to 5000 nM.
Consider `Cc1c(C(F)(F)F)nc2c(c1NC(=O)N=S(N)(=O)c1cnn3c1OCCC3)CCC2` (single isomer, unassigned) [Example 658, (S) or (R)-N′-((3-methyl-2-(trifluoromethyl)-6,7-dihydro-5H-cyclopenta[b]pyridin-4-yl)carbamoyl)-6,7-dihydro-5H-pyrazolo[5,1-b][1,3] oxazine-3-sulfonimidamide], for which, where the note is “Homo sapiens, THP-1, Table B3, hTHP-1 assay, numeric values, read-out: IC50”, the IC50 is more than 30000 nM.
In the case of `CC(C)c1ncc(F)c(C(C)C)c1NC(=O)N=S(N)(=O)c1nc(C(C)(C)O)cs1` (single isomer, unassigned) [Compound 163b, (S) or (R)-N′-((5-fluoro-2,4-diisopropylpyridin-3-yl)carbamoyl)-4-(2-hydroxypropan-2-yl)thiazole-2-sulfonimidamide], under setting [2], the IC50 is 5000 to 30000 nM.
In the case of `CC1(C)Cc2nc3c(c(NC(=O)N=S(N)(=O)c4cnc(C(C)(C)O)s4)c2C1)CCC3` (single isomer, unassigned) [Compound 147a, (S) or (R)-N′-((2,2-dimethyl-1,2,3,5,6,7-hexahydrodicyclo-penta[b,e]pyridin-8-yl)carbamoyl)-2-(2-hydroxypropan-2-yl)thiazole-5-sulfonimidamide], the half-inhibitory concentration (IC50) (Homo sapiens, THP-1, Table B1, numeric bounds, read-out: Average IC50 of compounds in hTHP-1 assay: hTHP-1 IC50) is more than 30000 nM.
Take `CCc1c(C(F)(F)F)nc2c(c1NC(=O)N=S(N)(=O)c1sc(C(C)(C)O)cc1F)CCC2` (single isomer, unassigned) [Compound 611a, (S) or (R)-N′-((3-ethyl-2-(trifluoromethyl)-6,7-dihydro-5H-cyclopenta[b]pyridin-4-yl)carbamoyl)-3-fluoro-5-(2-hydroxypropan-2-yl)thiophene-2-sulfonimidamide]: the IC50 under setting [5] is 5000 to 30000 nM.
For the molecule `C[C@@H]1CCc2c1nc1c(c2NC(=O)N=[S@@](N)(=O)c2cc([C@@H](C)O)cs2)CCC1` (single isomer, unassigned) [Example 663, (R)-4-((R) or (S)-1-hydroxyethyl)-N′-(((R)-3-methyl-1,2,3,5,6,7-hexahydrodicyclopenta[b,e]pyridin-8-yl)carbamoyl) thiophene-2-sulfonimidamide], under setting [6], the concentration for half-maximal inhibition (IC50) was 40 to 200 nM.
`CCn1nc(S(N)(=O)=NC(=O)Nc2c3c(nc4c2CCC4(C)C)CCC3)cc1CO` (stereo not drawn) [Example 591, N′-((3,3-dimethyl-1,2,3,5,6,7-hexahydrodicyclopenta[b,e]pyridin-8-yl)carbamoyl)-1-ethyl-5-(hydroxymethyl)-1H-pyrazole-3-sulfonimidamide]: the half-inhibitory concentration (IC50) under setting [6] is 1000 to 5000 nM.
Take `C[C@@](O)(CO)c1cc(F)c(S(N)(=O)=NC(=O)Nc2c3c(nc4c2CCC42CC2)CCC3)s1` (stereo partly drawn) [Compound 716b]: under setting [1], the 50% inhibitory concentration (IC50) was 200 to 1000 nM.
Regarding `CC1(C)CCc2c1nc1c(c2NC(=O)N=[S@@](N)(=O)c2cc([C@@](C)(O)CO)cs2)CCC1` [Example 653, (R)-4-((R)-1,2-dihydroxypropan-2-yl)-N′-((3,3-dimethyl-1,2,3,5,6,7-hexahydrodicyclopenta[b,e]pyridin-8-yl)carbamoyl) thiophene-2-sulfonimidamide], the 50% inhibitory concentration (IC50) under setting [6] was in the range of 40 to 200 nM.
In the case of `CC(C)n1cc(F)c(S(N)(=O)=NC(=O)Nc2c3c(nc4c2CC[C@H]4C)CCC3)n1` (single isomer, unassigned) [Example 757, (R) or (S)-4-fluoro-1-isopropyl-N′-(((R)-3-methyl-1,2,3,5,6,7-hexahydrodicyclopenta[b,e]pyridin-8-yl)carbamoyl)-1H-pyrazole-3-sulfonimidamide], the IC50 (Table B4, class symbols, read-out: hTHP-1 IC50) lay in the range of 8 to 40 nM.
As to `CC(C)(O)c1sc(S(N)(=O)=NC(=O)Nc2c3c(nc4c2CCC4)CCC3)cc1F` (stereo not drawn) [Compound 678, 4-Fluoro-N′-((1,2,3,5,6,7-hexahydrodicyclopenta[b,e]pyridin-8-yl)carbamoyl)-5-(2-hydroxypropan-2-yl)thiophene-2-sulfonimidamide], the 50% inhibitory concentration (IC50) under setting [1] was in the range of 1000 to 5000 nM.
Take `Cc1cn(C(C)C)nc1S(N)(=O)=NC(=O)Nc1c2c(nc3c1CCC3)CCC2` (stereo not drawn) [Compound 687, N′-((1,2,3,5,6,7-hexahydrodicyclopenta[b,e]pyridin-8-yl)carbamoyl)-1-isopropyl-4-methyl-1H-pyrazole-3-sulfonimidamide]: the IC50 under setting [1] was in the range of 5000 to 30000 nM.
In the case of `CC1CCc2nc3c(c(NC(=O)N=S(N)(=O)c4cnc(C(C)(C)O)s4)c21)CCC3` (stereo not drawn) [Compound 151, 2-(2-hydroxypropan-2-yl)-N′-((1-methyl-1,2,3,5,6,7-hexahydrodicyclopenta[b,e]pyridin-8-yl)carbamoyl)thiazole-5-sulfonimidamide], under setting [4], the 50% inhibitory concentration (IC50) lay in the range of 200 to 1000 nM.
In the case of `CC(C)(O)c1cc(F)c(S(N)(=O)=NC(=O)Nc2c3c(nc(C(F)(F)F)c2C2CC2)CCC3)s1` (single isomer, unassigned) [Example 659, (R) or (S)-N′-((3-cyclopropyl-2-(trifluoromethyl)-6,7-dihydro-5H-cyclopenta[b]pyridin-4-yl)carbamoyl)-3-fluoro-5-(2-hydroxypropan-2-yl) thiophene-2-sulfonimidamide], the IC50 (Table B3, hTHP-1 assay, class symbols, read-out: IC50) lay in the range of 200 to 1000 nM.
In the case of `CC(C)c1ncc(F)c(C(C)C)c1NC(=O)N=S(N)(=O)c1sc(C(C)(C)O)cc1F` (single isomer, unassigned) [Compound 106a, (R) or (S)-3-fluoro-N′-((5-fluoro-2,4-diisopropylpyridin-3-yl)carbamoyl)-5-(2-hydroxypropan-2-yl)thiophene-2-sulfonimidamide], the 50% inhibitory concentration (IC50) under setting [2] fell in the range of 40 to 200 nM.

As usually defined, the IC50 is the point on the concentration scale where inhibition reaches its midpoint.
